These compounds were tested against Human Factor D (Homo sapiens (Human), UniProt P00746) (assay: Human Factor D Assay). Settings: Factor D inhibition, assay of Example 10; read-out: IC5 (Stars).
Sequence of Human Factor D (P00746 26-253): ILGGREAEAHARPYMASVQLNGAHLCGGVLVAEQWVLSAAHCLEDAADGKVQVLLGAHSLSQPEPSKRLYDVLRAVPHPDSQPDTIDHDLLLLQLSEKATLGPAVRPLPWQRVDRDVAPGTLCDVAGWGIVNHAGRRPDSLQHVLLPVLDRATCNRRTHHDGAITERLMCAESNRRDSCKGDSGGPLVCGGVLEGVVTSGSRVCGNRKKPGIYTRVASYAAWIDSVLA
Format: biochemical
In short: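 Thioester substrate Z-L-Lys-SBz (100 μM) with Ellman's reagent DTNB (100 μM) reports activity of 80 nM human serum-derived enzyme, kinetically at 405 nm over 30 min. Compound preincubated 5 min, room temperature, pH 7.5 Tris/1 M NaCl; IC50 by nonlinear fit of rates.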
In the case of `CCc1cc(-c2cnc(C)nc2)cc2c(C(C)=O)nn(CC(=O)N3[C@H](C(=O)Nc4nc(Br)ccc4C)C[C@@]4(CN(C)C)C[C@@H]34)c12` [Compound 316, (1R,3S,5R)-2-(2-(3-acetyl-7-ethyl-5-(2-methylpyrimidin-5-yl)-1H-indazol-1-yl)acetyl)-N-(6-bromo-3-methylpyridin-2-yl)-5-((dimethylamino)methyl)-2-azabicyclo[3.1.0]hexane-3-carboxamide], the IC50 is reported as < 1 µM.
In the case of `CC(=O)c1nn(CC(=O)N2[C@H](C(=O)Nc3nc(Br)ccc3CN3CCC(C)(F)CC3)C[C@@]3(C)C[C@@H]23)c2ccc(-c3cnc(C)nc3)cc12` [Compound 322, (1R,3S,5R)-2-(2-(3-acetyl-5-(2-methylpyrimidin-5-yl)-1H-indazol-1-yl)acetyl)-N-(6-bromo-3-((4-fluoro-4-methylpiperidin-1-yl)methyl)pyridin-2-yl)-5-methyl-2-azabicyclo[3.1.0]hexane-3-carboxamide], the IC50 is reported as < 1 µM.
In the case of `CC(=O)c1nn(CC(=O)N2[C@H](C(=O)Nc3nc(Br)ccc3C)C[C@@]3(CN(C)C)C[C@@H]23)c2c(C(F)CF)cc(-c3cnc(C)nc3)cc12` (stereo partly drawn) [Compound 325, (1R,3S,5R)-2-(2-(3-acetyl-7-(1,2-difluoroethyl)-5-(2-methylpyrimidin-5-yl)-1H-indazol-1-yl)acetyl)-N-(6-bromo-3-methylpyridin-2-yl)-5-((dimethylamino)methyl)-2-azabicyclo[3.1.0]hexane-3-carboxamide], the IC50 is reported as < 1 µM.
With `CC(=O)c1nn(CC(=O)N2[C@H](C(=O)Nc3nc(Br)ccc3C)C[C@@]3(CCC(F)F)C[C@@H]23)c2cnc(-c3cnc(C)nc3)cc12` [Compound 327] the IC50 was < 1 µM.
`CC(=O)c1nn(CC(=O)N2[C@H](C(=O)Nc3nc(Br)ccc3C)C[C@@]3(C)C[C@@H]23)c2ccc(-c3cnc(C)nc3C)cc12` [Compound 331, (1R,3S,5R)-2-(2-(3-acetyl-5-(2,4-dimethylpyrimidin-5-yl)-1H-indazol-1-yl)acetyl)-N-(6-bromo-3-methylpyridin-2-yl)-5-methyl-2-azabicyclo[3.1.0]hexane-3-carboxamide] was tested, and the IC50 was < 1 µM.
In the case of `CC(=O)c1nn(CC(=O)N2[C@H](C(=O)Nc3nc(Br)ccc3C)C[C@@]3(c4cc(C(C)C)no4)C[C@@H]23)c2ccc(-c3cnc(C)nc3)cc12` [Compound 333, (1R,3S,5S)-2-(2-(3-acetyl-5-(2-methylpyrimidin-5-yl)-1H-indazol-1-yl)acetyl)-N-(6-bromo-3-methylpyridin-2-yl)-5-(3-isopropylisoxazol-5-yl)-2-azabicyclo[3.1.0]hexane-3-carboxamide], the IC50 is reported as < 1 µM.
`CC(=O)c1nn(CC(=O)N2[C@H](C(=O)Nc3nc(Br)ccc3C)C[C@@]3(Cc4nc(C(C)(C)C)cs4)C[C@@H]23)c2ccc(-c3cnc(C)nc3)cc12` [Compound 338, (1R,3S,5R)-2-{2-[3-Acetyl-5-(2-methylpyrimidin-5-yl)indazol-1-yl]acetyl}-N-(6-bromo-3-methylpyridin-2-yl)-5-[(4-tert-butyl-1,3-thiazol-2-yl)methyl]-2-azabicyclo[3.1.0]hexane-3-carboxamide] was tested, and the IC50 was < 1 µM.
In the case of `CCc1csc(C[C@@]23C[C@@H](C(=O)Nc4nc(Br)ccc4C)N(C(=O)Cn4nc(C(C)=O)c5cc(-c6cnc(C)nc6)ccc54)[C@@H]2C3)n1` [Compound 339, (1R,3S,5R)-2-(2-(3-acetyl-5-(2-methylpyrimidin-5-yl)-1H-indazol-1-yl)acetyl)-N-(6-bromo-3-methylpyridin-2-yl)-5-((4-ethylthiazol-2-yl)methyl)-2-azabicyclo[3.1.0]hexane-3-carboxamide], the IC50 is reported as < 1 µM.
In the case of `CC(=O)c1nn(CC(=O)N2[C@H](C(=O)Nc3nc(Br)ccc3C)C[C@@]3(CNCCCF)C[C@@H]23)c2c(C)cc(-c3cnc(C)nc3)cc12` [Compound 342, (1R,3S,5R)-2-(2-(3-acetyl-7-methyl-5-(2-methylpyrimidin-5-yl)-1H-indazol-1-yl)acetyl)-N-(6-bromo-3-methylpyridin-2-yl)-5-(((3-fluoropropyl)amino)methyl)-2-azabicyclo[3.1.0]hexane-3-carboxamide], the IC50 is reported as < 1 µM.
With `CC(=O)c1nn(CC(=O)N2[C@H](C(=O)Nc3nc(Br)ccc3C)C[C@@]3(CN4CC5(CCC5)C4)C[C@@H]23)c2c(C)nc(-c3cnc(C)nc3)cc12` [Compound 344, (1R,3S,5R)-5-(2-azaspiro[3.3]heptan-2-ylmethyl)-2-(2-(3-acetyl-7-methyl-5-(2-methylpyrimidin-5-yl)-1H-pyrazolo[3,4-c]pyridin-1-yl)acetyl)-N-(6-bromo-3-methylpyridin-2-yl)-2-azabicyclo[3.1.0]hexane-3-carboxamide] the IC50 was < 1 µM.
In the case of `CC(=O)c1nn(CC(=O)N2[C@H](C(=O)Nc3nc(Br)ccc3C)C[C@@]3(CCCN(C)C)C[C@@H]23)c2c(CF)cc(-c3cnc(C)nc3)cc12` [Compound 345, (1R,3S,5R)-2-(2-(3-acetyl-7-(fluoromethyl)-5-(2-methylpyrimidin-5-yl)-1H-indazol-1-yl)acetyl)-N-(6-bromo-3-methylpyridin-2-yl)-5-(3-(dimethylamino)propyl)-2-azabicyclo[3.1.0]hexane-3-carboxamide], the IC50 is reported as < 1 µM.
In the case of `CC(=O)c1nn(CC(=O)N2[C@H](C(=O)Nc3nc(Br)ccc3C)C[C@@]3(Cc4ncc(C(C)C)s4)C[C@@H]23)c2ccc(-c3cnc(C)nc3)cc12` [Compound 349, (1R,3S,5R)-2-(2-(3-acetyl-5-(2-methylpyrimidin-5-yl)-1H-indazol-1-yl)acetyl)-N-(6-bromo-3-methylpyridin-2-yl)-5-((5-isopropylthiazol-2-yl)methyl)-2-azabicyclo[3.1.0]hexane-3-carboxamide], the IC50 is reported as < 1 µM.
With `CC(=O)c1nn(CC(=O)N2[C@H](C(=O)Nc3nc(Br)ccc3C)C[C@@]3(CN4CC(C)(C)C4)C[C@@H]23)c2c(C)cc(-c3cnc(C)nc3)cc12` [Compound 350] the IC50 was < 1 µM.
In the case of `CC(=O)c1nn(CC(=O)N2[C@H](C(=O)Nc3nc(Br)ccc3C)C[C@@]3(CN4CCCC4)C[C@@H]23)c2c(CF)cc(-c3cnc(C)nc3)cc12` [Compound 351, (1R,3S,5R)-2-(2-(3-acetyl-7-(fluoromethyl)-5-(2-methylpyrimidin-5-yl)-1H-indazol-1-yl)acetyl)-N-(6-bromo-3-methylpyridin-2-yl)-5-(pyrrolidin-1-ylmethyl)-2-azabicyclo[3.1.0]hexane-3-carboxamide], the IC50 is reported as < 1 µM.
In the case of `CC(=O)c1nn(CC(=O)N2[C@H](C(=O)Nc3nc(Br)ccc3C)C[C@@]3(CN4CCC4)C[C@@H]23)c2c(CF)cc(-c3cnc(C)nc3)cc12` [Compound 353, (1R,3S,5R)-2-(2-(3-acetyl-7-(fluoromethyl)-5-(2-methylpyrimidin-5-yl)-1H-indazol-1-yl)acetyl)-5-(azetidin-1-ylmethyl)-N-(6-bromo-3-methylpyridin-2-yl)-2-azabicyclo[3.1.0]hexane-3-carboxamide], the IC50 is reported as < 1 µM.
For `CC(=O)c1nn(CC(=O)N2[C@H](C(=O)Nc3nc(Br)ccc3C)C[C@@]3(CN4CC5(CCC5)C4)C[C@@H]23)c2c(CF)cc(-c3cnc(C)nc3)cc12` [Compound 354, (1R,3S,5R)-5-(2-azaspiro[3.3]heptan-2-ylmethyl)-2-(2-(3-acetyl-7-(fluoromethyl)-5-(2-methylpyrimidin-5-yl)-1H-indazol-1-yl)acetyl)-N-(6-bromo-3-methylpyridin-2-yl)-2-azabicyclo[3.1.0]hexane-3-carboxamide], the IC50 was < 1 µM.
`CC(=O)c1nn(CC(=O)N2[C@H](C(=O)Nc3nc(Br)ccc3C)C[C@@]3(CN4CC(C)(C)C4)C[C@@H]23)c2c(CF)cc(-c3cnc(C)nc3)cc12` [Compound 355, (1R,3S,5R)-2-(2-(3-acetyl-7-(fluoromethyl)-5-(2-methylpyrimidin-5-yl)-1H-indazol-1 yl)acetyl)-N-(6-bromo-3-methylpyridin-2-yl)-5-((3,3-dimethylazetidin-1-yl)methyl)-2-azabicyclo[3.1.0]hexane-3-carboxamide] was tested, and the IC50 was < 1 µM.

Same assay, conditions: Table 8; Factor D 80 nM, substrate Z-L-Lys-SBz; read-out: IC50
`CC(=O)c1nn(CC(=O)N2[C@H](C(=O)Nc3nc(Br)ccc3C)C[C@@]3(CN(C)C)C[C@@H]23)c2c(C3CC3)cc(-c3cnc(C)nc3)cc12` [Compound 317, (1R,3S,5R)-2-(2-(3-acetyl-7-cyclopropyl-5-(2-methylpyrimidin-5-yl)-1H-indazol-1-yl)acetyl)-N-(6-bromo-3-methylpyridin-2-yl)-5-((dimethylamino)methyl)-2-azabicyclo[3.1.0]hexane-3-carboxamide] was tested, and the IC50 was < 1 µM.
With `CC(=O)c1nn(CC(=O)N2[C@H](C(=O)Nc3nc(Br)ccc3C)C[C@@]3(CN(C)C)C[C@@H]23)c2c(C(F)(F)F)cc(-c3cnc(C)nc3)cc12` [Compound 318, (1R,3S,5R)-2-(2-(3-acetyl-5-(2-methylpyrimidin-5-yl)-7-(trifluoromethyl)-1H-indazol-1-yl)acetyl)-N-(6-bromo-3-methylpyridin-2-yl)-5-((dimethylamino)methyl)-2-azabicyclo[3.1.0]hexane-3-carboxamide] the IC50 was < 1 µM.
With `COC(=O)CCCCCCCCCCCCCCCCC(=O)N[C@@H](CCC(=O)NCCOCCOCC(=O)NCCOCCOCC(=O)NCc1ncc(-c2ccc3c(c2)c(C(C)=O)nn3CC(=O)N2[C@H](C(=O)Nc3nc(Br)ccc3C)C[C@@]3(C)C[C@@H]23)cn1)C(=O)OC` [Compound 329] the IC50 was < 1 µM.
With `C=CCCCCCCc1cc(-c2cnc(C)nc2)cc2c(C(C)=O)nn(CC(=O)N3[C@H](C(=O)Nc4nc(Br)ccc4CC=C)C[C@@]4(C)C[C@@H]34)c12` [Compound 343, (1R,3S,5R)-2-(2-(3-acetyl-5-(2-methylpyrimidin-5-yl)-7-(oct-7-en-l-yl)-1H-indazol-1-yl)acetyl)-N-(3-allyl-6-bromopyridin-2-yl)-5-methyl-2-azabicyclo[3.1.0]hexane-3-carboxamide] the IC50 was < 1 µM.
